# Experimental data taken from patent US7919513B2, “Inhibitors of p38” (Vertex Pharmaceuticals Incorporated, priority 2000, dated 2011).
# Legend:
# activated p38 = activated p38 (Homo sapiens, UniProt Q16539); assay: Kinase assay: inhibition of phosphorylation of EGF receptor peptide; format: biochemical; settings: activated p38 5 nM, EGF receptor peptide 200 μM, ATP 100 μM, 30° C, HPLC
# Protocol: A. Inhibition of Phosphorylation of EGF Receptor Peptide
# This assay was carried out in the presence of 10 mM MgCl2, 25 mM β-glycerophosphate, 10% glycerol and 100 mM HEPES buffer at pH 7.6. For a typical IC50 determination, a stock solution was prepared containing all of the above components and activated p38 (5 nM). The stock solution was aliquotted into vials. A fixed volume of DMSO or inhibitor in DMSO (final concentration of DMSO in reaction was 5%) was introduced to each vial, mixed and incubated for 15 minutes at room temperature. EGF receptor peptide, […] (SEQ ID NO: 3), a phosphoryl acceptor in p38-catalyzed kinase reaction (1), was added to each vial to a final concentration of 200 μM. The kinase reaction was initiated with ATP (100 μM) and the vials were incubated at 30° C. After 30 minutes, the reactions were quenched with equal volume of 10% trifluoroacetic acid (TFA).
# The phosphorylated peptide was quantified by HPLC analysis. Separation of phosphorylated peptide from the unphosphorylated peptide was achieved on a reverse phase column (Deltapak, 5 μm, C18 100D, Part no. 011795) with a binary gradient of water and acteonitrile, each containing 0.1% TFA. IC50 (concentration of inhibitor yielding 50% inhibition) was determined by plotting the percent (%) activity remaining against inhibitor concentration.
# [1] = test system: IL-1 production in LPS-stimulated PBMCs; assay: Inhibition of IL-1 production in LPS-stimulated PBMCs ("cell"); format: cell-based; settings: Homo sapiens, PBMC, 4 ng/ml LPS, overnight, ELISA IL-1β
# Protocol: (§1) C. Inhibition of IL-1, TNF, IL-6 and IL-8 Production in LPS-Stimulated PBMCs
# (§2) Inhibitors were serially diluted in DMSO from a 20 mM stock. At least 6 serial dilutions were prepared. Then 4× inhibitor stocks were prepared by adding 4 μl of an inhibitor dilution to 1 ml of RPMI1640 medium/10% fetal bovine serum. The 4× inhibitor stocks contained inhibitor at concentrations of 80 μM, 32 μM, 12.8 μM, 5.12 μM, 2.048 μM, 0.819 μM, 0.328 μM, 0.131 μM, 0.052 μM, 0.021 μM etc. The 4× inhibitor stocks were pre-warmed at 37° C. until use.
# (§3) Fresh human blood buffy cells were separated from other cells in a Vacutainer CPT from Becton & Dickinson (containing 4 ml blood and enough DPBS without Mg^2+/Ca^2+ to fill the tube) by centrifugation at 1500×g for 15 min. […] The total cell number was determined using a Neubauer Cell Chamber and the cells were adjusted to a concentration of 4.8×10^6 cells/ml in cell culture medium (RPMI1640 supplemented with 10% fetal bovine serum). […]
# (§4) The next day the cells were mixed on a shaker for 3-5 minutes before centrifugation at 500×g for 5 minutes. Cell culture supernatants were harvested and analyzed by ELISA for levels of IL-1β (R & D Systems, Quantikine kits, #DBL50), TNF-α (BioSource, #KHC3012), IL-6 (Endogen, #EH2-IL6) and IL-8 (Endogen, #EH2-IL8) according to the instructions of the manufacturer. […]
# [2] = test system: TNF production in LPS-stimulated PBMCs; assay: Inhibition of TNF production in LPS-stimulated PBMCs ("cell"); format: cell-based; settings: Homo sapiens, PBMC, 4 ng/ml LPS, overnight, ELISA TNF-α
# Protocol: as §1, §2, §3, §4
# [3] = test system: IL-1 production in whole blood; assay: Inhibition of IL-1 production in LPS-stimulated whole blood ("WB"); format: cell-based; settings: Homo sapiens, 4 ng/ml LPS, overnight, ELISA IL-1β
# Protocol: as §1, §2
# (§5) Alternatively, whole blood containing an anti-coagulant was used directly in the assay.
# (§6) 100 μl of cell suspension or whole blood were placed in each well of a 96-well cell culture plate. Then 50 μl of the 4× inhibitor stock was added to the cells. Finally, 50 μl of a lipopolysaccharide (LPS) working stock solution (16 ng/ml in cell culture medium) was added to give a final concentration of 4 ng/ml LPS in the assay. […]
# as §4
# [4] = test system: TNF production in whole blood; assay: Inhibition of TNF production in LPS-stimulated whole blood ("WB"); format: cell-based; settings: Homo sapiens, 4 ng/ml LPS, overnight, ELISA TNF-α
# Protocol: as §1, §2, §5, §6, §4
# [5] = test system: IL-6 production in whole blood; assay: Inhibition of IL-6 production in LPS-stimulated whole blood ("WB"); format: cell-based; settings: Homo sapiens, 4 ng/ml LPS, overnight, ELISA IL-6
# Protocol: as §1, §2, §5, §6, §4
# Sequence of activated p38 (Q16539 whole entry): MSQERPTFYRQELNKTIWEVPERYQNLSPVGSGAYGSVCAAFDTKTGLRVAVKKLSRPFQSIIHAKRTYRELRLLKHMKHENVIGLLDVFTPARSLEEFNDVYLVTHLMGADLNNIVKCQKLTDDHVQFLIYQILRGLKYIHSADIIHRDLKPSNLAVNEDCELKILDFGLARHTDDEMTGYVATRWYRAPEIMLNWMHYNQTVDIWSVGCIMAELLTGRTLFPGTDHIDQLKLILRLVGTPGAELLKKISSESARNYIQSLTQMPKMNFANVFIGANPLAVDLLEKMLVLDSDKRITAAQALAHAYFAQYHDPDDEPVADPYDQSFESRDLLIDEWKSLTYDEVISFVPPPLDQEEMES
IC50 (activated p38),IC50 [3],IC50 [4],IC50 [5],Compound,IC50 [1],IC50 [2]
1 µM,12.2 µM,20 µM,11 µM,CN(C)/C=N/C(=O)OCc1ccc(N(C(N)=O)c2c(F)cccc2F)nc1-c1ccc(F)cc1F [Compound 9],0.05 µM,0.05 µM
5 µM,2.2 µM,4.3 µM,0.8 µM,CN(C)/C=N/C(=O)OCc1ccc(N(C(=O)/N=C/N(C)C)c2c(F)cccc2F)nc1-c1ccc(F)cc1F [Compound 10],–,–
